Experimental findings from ChEMBL document CHEMBL1201862, “PubChem BioAssay data set” (2004) are described below.

Test systems include Hs-578T; T47D; IGROV-1; CAKI-1; OVCAR-4; 786-0; MCF7; SN12C; HT-29; OVCAR-8; M14; SF-295; NCI-H23; A549; ACHN; SW-620; Malme-3M; K562; HCC 2998.
Holding throughout (experiment): NCI anticancer screen, dose series, 48 h

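Following 48 hours of exposure in 96-well plates, responses at five concentrations were used to interpolate endpoints linearly. GI50 marks 50% less growth.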 Active and inactive are the calls of the source. Cut-off read from the data, not from the text of the source: active = GI50 up to about 1.1 µM and inactive = higher.

Consider `Brc1ccc(-c2nc(-c3ccc(Br)cc3)n(-c3ccccc3)n2)cc1`, for which the GI50 was > 100 µM (inactive) in the experiment on Hs-578T; 12.9 µM (inactive) in the experiment on T47D; > 100 µM (inactive) in the experiment on IGROV-1; > 100 µM (inactive) in the experiment with CAKI-1; > 100 µM (inactive) with OVCAR-4; > 100 µM (inactive) in the experiment with 786-0. The GI50 in the experiment with MCF7 is > 100 µM (inactive); in the experiment with SN12C, > 100 µM (inactive); with HT-29, 26.9 µM (inactive); in the experiment with OVCAR-8 it was > 100 µM (inactive); with M14, > 100 µM (inactive); with SF-295 it was > 100 µM (inactive). Further, the GI50 in the experiment on NCI-H23 was > 100 µM (inactive); in the experiment on A549 it was 61.8 µM (inactive); with ACHN it was > 100 µM (inactive); with SW-620, > 100 µM (inactive).

Take `COC(=O)C1=C(O)C(C(=O)OC)[C@@]2(O)[C@@H](C(=O)OC)C(c3ccc(OC(=O)/C(=C/c4ccc(Cl)cc4)c4ccc(Cl)cc4)cc3)C[C@@H]1[C@@H]2C(=O)OC` (stereo not given in full): the GI50 in the experiment with Hs-578T was > 100 µM (inactive); with T47D, 18.7 µM (inactive); in the experiment with IGROV-1, 20.2 µM (inactive); in the experiment with CAKI-1 it was 15.9 µM (inactive); with OVCAR-4, 20.6 µM (inactive); in the experiment on 786-0 it was 22 µM (inactive). Also, the GI50 in the experiment with MCF7 was 20.6 µM (inactive); in the experiment on SN12C, 25.9 µM (inactive); in the experiment with HT-29, 38.5 µM (inactive); in the experiment with OVCAR-8, 41 µM (inactive); in the experiment with M14 it was 15.6 µM (inactive); with SF-295 it was 29.8 µM (inactive). Besides, the GI50 was 55.7 µM (inactive) in the experiment with Malme-3M; 50.1 µM (inactive) in the experiment on NCI-H23; 77.4 µM (inactive) in the experiment with A549; 32.4 µM (inactive) in the experiment on ACHN; 31.1 µM (inactive) with SW-620; 22.3 µM (inactive) in the experiment on K562.

As for `CCCc1c(Cl)nc(Cl)nc1Cl`, the GI50 in the experiment with Hs-578T is 3.52 µM (inactive); in the experiment with T47D, 3.08 µM (inactive); in the experiment on IGROV-1, 0.787 µM (active); in the experiment with OVCAR-4 it was 10.2 µM (inactive); in the experiment on 786-0, 0.247 µM (active); in the experiment with MCF7, 1.73 µM (inactive). For the same molecule, the GI50 is 0.467 µM (active) with SN12C; 0.175 µM (active) in the experiment with HT-29; 1.05 µM (active) with OVCAR-8; 0.192 µM (active) in the experiment with M14; 4.16 µM (inactive) in the experiment on SF-295; < 0.0208 µM (active) with Malme-3M. Moreover, the GI50 in the experiment on NCI-H23 was 0.428 µM (active); in the experiment with A549, 4.63 µM (inactive); with ACHN, 1.64 µM (inactive); in the experiment on SW-620 it was 0.16 µM (active); with HCC 2998, 5.55 µM (inactive); in the experiment with K562, 0.0723 µM (active).

`Cc1ccc(S(=O)(=O)N2CCC[C@@H]2C(=O)O[C@@H]2CCC3CC=CC32)cc1` (stereo not given in full): the GI50 with Hs-578T is 33.3 µM (inactive); in the experiment on T47D, 20.9 µM (inactive); with IGROV-1 it was 39.9 µM (inactive); with OVCAR-4, 47 µM (inactive); with 786-0, 19.9 µM (inactive); in the experiment with MCF7 it was 33.9 µM (inactive). Further, the GI50 with SN12C was 28.1 µM (inactive); with HT-29, 24 µM (inactive); in the experiment on OVCAR-8, 34.4 µM (inactive); in the experiment with M14, 34.6 µM (inactive); in the experiment with SF-295 it was 36.8 µM (inactive); with Malme-3M it was 24.5 µM (inactive). The GI50 in the experiment on NCI-H23 is 35.1 µM (inactive); in the experiment on A549, 34.5 µM (inactive); in the experiment with ACHN it was 38.5 µM (inactive); with SW-620, 40.3 µM (inactive); in the experiment on HCC 2998, 31.5 µM (inactive); in the experiment with K562 it was 14 µM (inactive).

Turning to `CN(C)C(=O)C1CCN(Cc2c[nH]c3ccccc23)CC1`, the GI50 in the experiment on Hs-578T, in the experiment with T47D, with IGROV-1, in the experiment on CAKI-1, with OVCAR-4 and with 786-0 was > 100 µM (inactive) throughout. The GI50 in the experiment on MCF7, with SN12C, with HT-29, with OVCAR-8, in the experiment on M14 and in the experiment on SF-295 was > 100 µM (inactive) in each case. Moreover, the GI50 is > 100 µM (inactive) in the experiment on Malme-3M; > 100 µM (inactive) in the experiment on NCI-H23; > 100 µM (inactive) in the experiment on A549; > 100 µM (inactive) in the experiment on ACHN; 17 µM (inactive) in the experiment with SW-620; > 100 µM (inactive) in the experiment with K562.

As to `Cc1ccc(/N=N/c2c(O)ccc3ccccc23)c(C)c1`, the GI50 with Hs-578T, in the experiment with T47D, in the experiment on IGROV-1, in the experiment with CAKI-1, with OVCAR-4 and in the experiment with 786-0 was > 100 µM (inactive) throughout. For the same molecule, the GI50 in the experiment with SN12C, with HT-29, in the experiment with OVCAR-8, in the experiment with M14, with SF-295 and in the experiment with NCI-H23 was > 100 µM (inactive) each time. The GI50 in the experiment on A549, in the experiment with SW-620 and with K562 was > 100 µM (inactive) in each case.

`CC(C)CCCC(C)[C@H]1CCC2[C@@H]3CCC4Cc5nc6c(nc5C[C@]4(C)C3CC[C@@]21C)CC1CC[C@@H]2C(CC[C@@]3(C)C2CC[C@@H]3O)[C@@]1(C)C6` (stereo not given in full): the GI50 is > 100 µM (inactive) in the experiment on Hs-578T; > 100 µM (inactive) with T47D; > 100 µM (inactive) in the experiment with IGROV-1; > 100 µM (inactive) with OVCAR-4; 87.1 µM (inactive) in the experiment with 786-0; > 100 µM (inactive) with MCF7. Moreover, the GI50 with SN12C, in the experiment with HT-29, with OVCAR-8, in the experiment on M14, with SF-295 and in the experiment on Malme-3M was > 100 µM (inactive) in each case. The GI50 with NCI-H23, with A549, in the experiment on ACHN, in the experiment on SW-620 and in the experiment on K562 was > 100 µM (inactive) throughout.

Take `Cc1ccc([N+](=O)[O-])cc1S(=O)(=O)Nc1ccc(C2=NN(c3ccc([N+](=O)[O-])cc3[N+](=O)[O-])C(c3ccccc3O)C2)cc1` (stereo not given): the GI50 in the experiment on Hs-578T was 42.7 µM (inactive); in the experiment with T47D, 27.6 µM (inactive); in the experiment with IGROV-1 it was 26.4 µM (inactive); with CAKI-1, 33.8 µM (inactive); in the experiment on OVCAR-4, 31 µM (inactive); in the experiment on 786-0, 39.8 µM (inactive). Besides, the GI50 is 27.9 µM (inactive) in the experiment with MCF7; 18 µM (inactive) with SN12C; 43.3 µM (inactive) with HT-29; 38.4 µM (inactive) in the experiment with OVCAR-8; 34.2 µM (inactive) in the experiment with M14; 29.9 µM (inactive) with SF-295. Moreover, the GI50 in the experiment on Malme-3M was 41.7 µM (inactive); in the experiment with NCI-H23 it was 19.6 µM (inactive); in the experiment on A549, 31.4 µM (inactive); in the experiment on ACHN it was 35.1 µM (inactive); in the experiment with SW-620, 63.7 µM (inactive); with K562, 21.8 µM (inactive).

For the molecule `c1ccc(N/N=N/c2ccc(-c3nc4ccccc4[nH]3)cc2)nc1`, the GI50 with Hs-578T was 19.8 µM (inactive); with T47D, 12.7 µM (inactive); in the experiment with IGROV-1, 13.2 µM (inactive); in the experiment on CAKI-1, 27.9 µM (inactive); in the experiment with OVCAR-4, 17.8 µM (inactive); in the experiment on 786-0, 14.4 µM (inactive). Also, the GI50 was 11.3 µM (inactive) with MCF7; 15.3 µM (inactive) in the experiment on SN12C; 21 µM (inactive) with HT-29; 21.7 µM (inactive) with OVCAR-8; 37.4 µM (inactive) with M14; 19.2 µM (inactive) in the experiment with SF-295. Moreover, the GI50 was 15.6 µM (inactive) with Malme-3M; 31.8 µM (inactive) with NCI-H23; 19.2 µM (inactive) in the experiment with A549; 16.6 µM (inactive) with ACHN; 17.8 µM (inactive) in the experiment with SW-620; 7.31 µM (inactive) in the experiment on K562.

Take `COc1cc2c3c(n(C)c(=O)c2cc1OC)-c1cc2c(cc1/C3=C\CCCCCBr)OCO2`: the GI50 in the experiment on Hs-578T was > 100 µM (inactive); in the experiment with T47D it was 2.75 µM (inactive); in the experiment with IGROV-1, 0.0546 µM (active); in the experiment on CAKI-1, 3.81 µM (inactive); with OVCAR-4, 26.9 µM (inactive); in the experiment with 786-0, 5.77 µM (inactive). Besides, the GI50 in the experiment on MCF7 is 3.5 µM (inactive); in the experiment on SN12C it was 5.96 µM (inactive); with HT-29, 11.2 µM (inactive); in the experiment on OVCAR-8 it was 9.53 µM (inactive); in the experiment on SF-295 it was 4.56 µM (inactive); in the experiment on NCI-H23, 10.6 µM (inactive). The GI50 with A549 was 9.08 µM (inactive); in the experiment with ACHN, 4.39 µM (inactive); with SW-620, 8.32 µM (inactive); in the experiment on K562, 6.3 µM (inactive).

`c1cc2c(cc1C(N1CCNCC1)N1CCNCC1)OCO2`: the GI50 in the experiment with Hs-578T, in the experiment with T47D, with IGROV-1, with CAKI-1, in the experiment with OVCAR-4 and in the experiment on 786-0 was > 100 µM (inactive) throughout. Further, the GI50 in the experiment with MCF7, in the experiment on SN12C, in the experiment with HT-29, in the experiment with OVCAR-8, in the experiment on M14 and in the experiment with SF-295 was > 100 µM (inactive) throughout. Besides, the GI50 was > 100 µM (inactive) with Malme-3M; > 100 µM (inactive) in the experiment on NCI-H23; > 100 µM (inactive) in the experiment with A549; > 100 µM (inactive) with ACHN; > 100 µM (inactive) in the experiment with SW-620; 2.42 µM (inactive) in the experiment with K562.
